The target of series [1] is T1, Pichia stipitis xylose reductase (Ps-XR) (Scheffersomyces stipitis, UniProt P31867).
T1 construct: gene XYL1; XYL1 gene product overproduced in S. cerevisiae TMB3260 (PGK1p-XYL1); purified by Red-Sepharose and gel filtration; no tag mentioned
T1 sequence (P31867 1-318): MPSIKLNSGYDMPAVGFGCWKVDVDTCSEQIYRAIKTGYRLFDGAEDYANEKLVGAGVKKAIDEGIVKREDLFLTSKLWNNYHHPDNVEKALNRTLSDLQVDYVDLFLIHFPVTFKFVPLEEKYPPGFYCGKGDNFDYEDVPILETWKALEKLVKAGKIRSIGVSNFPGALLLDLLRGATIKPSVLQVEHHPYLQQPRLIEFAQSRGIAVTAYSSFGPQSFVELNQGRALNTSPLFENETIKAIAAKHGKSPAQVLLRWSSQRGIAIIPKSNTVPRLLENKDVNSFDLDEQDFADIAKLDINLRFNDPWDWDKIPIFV
Kind of series: NADPH oxidation at […] nm, non-linear regression, substrate-inhibition model with Hill coefficient. Format: biochemical. Conditions: NADPH as cofactor, Hill coefficient n = 3.51, 100 mM phosphate pH 7.0, 30 °C, unit of Ki not printed (Km in mM).

Substrate in series [2]: O=Cc1ccc(CO)o1
Kind of series: purified protein. Format: biochemical, Scheffersomyces stipitis. Conditions: NADPH as cofactor, substrate-inhibition model, 100 mM phosphate pH 7.0, 30 °C.

Among the data in publication PMC2464581, “Pichia stipitis xylose reductase helps detoxifying lignocellulosic hydrolysate by reducing 5-hydroxymethyl-furfural (HMF)” (Biotechnology for Biofuels, 2008) are Ki and Km values, retold here.

In series [1], `O=Cc1ccc(CO)o1` [HMF] showed a Ki of 95.0.

B1: Pichia stipitis xylose reductase (Ps-XR) (Scheffersomyces stipitis CBS 6054) (protein)
chain: T1 sequence (P31867 1-318)
notes: XYL1 gene product overproduced in S. cerevisiae TMB3260 (PGK1p-XYL1); purified by Red-Sepharose and gel filtration; no tag mentioned
B1: the Michaelis constant (Km) in series [2] stood at 40 mM.
